# Tested on: Aβ42
# Assay: In vitro cell screening assay in H4 cells expressing human APP751: Aβ42 by sandwich ELISA
# Assay type: cell-based
# Conditions: compounds 0.003-10 μM, incubated overnight (16-18 h), sandwich ELISA of supernatant
# Summary of the method: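 Secreted Aβ42 measured by sandwich ELISA, C-terminal-specific capture and 4G8-HRP detection, TMB read at 450 nm, from supernatants of APP751-expressing H4 cells exposed overnight (16-18 h) to 0.003-10 μM compound in Pro293 medium, 0.33% DMSO. Data scaled between DMSO and DAPT controls; EC50 from variable-slope nonlinear regression.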
SMILES,EC50 (Homo sapiens) [nM],EC50 [nM]
"COc1nc(C2=NOC[C@H](c3cc4ccccc4o3)N2)ccc1-n1cnc(C)c1 [Example 4, (R)-5-(Benzofuran-2-yl)-3-(6-methoxy-5-(4-methyl-1H-imidazol-1-yl)pyridin-2-yl)-5,6-dihydro-4H-1,2,4-oxadiazine]",38.4,
"COc1nc(C2=NOCC(c3cc4ccccc4o3)N2)ccc1-n1cnc(C)n1 (single isomer, unassigned; (-)) [Example 31A, (−)-5-(Benzofuran-2-yl)-3-(6-methoxy-5-(3-methyl-1H-1,2,4-triazol-1-yl)pyridin-2-yl)-5,6-dihydro-4H-1,2,4-oxadiazine]",,> 3000
"COc1nc(C2=NOCC(C3CCCCC3)N2)ccc1-n1cnc(C)c1 (single isomer, unassigned; (-)) [Example 61A, (−)-5-cyclohexyl-3-(6-methoxy-5-(4-methyl-1H-imidazol-1-yl)pyridin-2-yl)-5,6-dihydro-4H-1,2,4-oxadiazine]",,775

# The remaining lines, values ahead:
EC50 (Homo sapiens) [nM],EC50 [nM],SMILES
,148,"COc1nc(C2=NOCC(c3cn(C)c4cc(Cl)cc(OC)c34)N2)ccc1-n1cnc(C)c1 (single isomer, unassigned; (-)) [Example 254A, (−)-5-(6-chloro-4-methoxy-1-methyl-1H-indol-3-yl)-3-(6-methoxy-5-(4-methyl-1H-imidazol-1-yl)pyridin-2-yl)-5,6-dihydro-4H-1,2,4-oxadiazine]"
,23.2,"COc1nc(C2=NOCC(c3ccc(F)c(Cl)c3)N2)ccc1-n1cnc(C)c1 (single isomer, unassigned; (+)) [Example 108B, (+)-5-(3-chloro-4-fluorophenyl)-3-(6-methoxy-5-(4-methyl-1H-imidazol-1-yl)pyridin-2-yl)-5,6-dihydro-4H-1,2,4-oxadiazine]"

# Source: patent publication US9802927B2, “Oxadiazine compounds and methods of use thereof” (Denali Therapeutics, Inc., priority 2015, dated 2017)
